Target: T1, flavohemoglobin (gFlHb) (Giardia duodenalis, UniProt E2RTZ4)
T1 construct: gene hmpA; recombinant gFlHb fused to an N-terminal His6-tag
Test: UV-visible spectral titration of ferric heme at […] nm (also stimulates NADH oxidase activity)
Type: binding

T1 sequence (E2RTZ4 whole entry, the tested form may be a part): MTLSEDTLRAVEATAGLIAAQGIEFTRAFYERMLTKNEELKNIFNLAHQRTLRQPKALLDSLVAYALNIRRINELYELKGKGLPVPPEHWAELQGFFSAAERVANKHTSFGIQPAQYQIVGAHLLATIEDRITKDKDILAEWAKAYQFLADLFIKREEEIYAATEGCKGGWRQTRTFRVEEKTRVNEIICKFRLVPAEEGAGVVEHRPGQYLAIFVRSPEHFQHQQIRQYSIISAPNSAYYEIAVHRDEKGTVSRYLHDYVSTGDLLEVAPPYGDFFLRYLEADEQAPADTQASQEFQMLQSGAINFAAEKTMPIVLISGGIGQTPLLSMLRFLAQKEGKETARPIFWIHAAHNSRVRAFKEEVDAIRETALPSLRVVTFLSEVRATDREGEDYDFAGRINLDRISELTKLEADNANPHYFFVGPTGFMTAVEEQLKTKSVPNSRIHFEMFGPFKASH

| Compound | Kd [nM] |
| --- | --- |
| CCCSc1ccc2nc(NC(=O)OC)[nH]c2c1 [ABZ, albendazole] | 23 ± 9 |
| CCC[S+]([O-])c1ccc2[nH]c(NC(=O)OC)nc2c1 (centres unmarked) [ABZSO, albendazole sulfoxide] | 19 ± 8 |

Source: article PMC9514659, “Giardia duodenalis: Flavohemoglobin is involved in drug biotransformation and resistance to albendazole” (PLoS Pathogens, 2022)
